Patent US5902817A, “Certain sulfoxide and sulfone derivatives” (priority 1997, dated 1999)
Where two headings read alike, the source gives them in different places. Where a SMILES comes first, the peptide text is derived from it.

Legend:
[1] = system: LNCAP cells; conditions: 7 days, mean +/- SEM
Description: On the 7th day, the cells are pulsed with 3H-thymidine for 4 hours, harvested and measured for radioactivity. Values represent means +/- SEM of 6 separate cell wells for each treatment. All experiments are performed at least twice.
LNCAP cells are obtained from Dr. William Nelson at the Johns Hopkins School of Medicine in Baltimore, Md. […] Cells are grown in RPMI-1640 media supplemented with 5% heat-inactivated fetal calf serum, 2 mM-glutamine, 100 units/ml penicillin, and 100 μg/ml streptomycin (Paragon) in a humidified incubator at 37° C. in a 5% CO2 /95% air atmosphere.
The cells are suspended at 1×10^3 cells/ml in RPMI-1640 media and seeded into 24-well plates at 500 μl per well. […] On days 3, 5 and 7, media and drug are refreshed. On the 8th day following seeding, each well is pulsed with 1 μCi ^3 H-thymidine (New England Nuclear) for 4 hours. Media is then removed and the wells washed 2 times with phosphate buffered saline (pH=7.4). […] 5 ml UltimaGold (Packard) scintillation cocktail is added and radioactivity is quantitated using a Beckman LS6001 scintillation counter.

[2] = system: cortical cell cultures; experiment: In Vitro Toxicity of NAAG following Treatment with NAALADase Inhibitors (LDH release); assay type: cell-based, rat (Harlan Sprague Dawley); conditions: inhibitor 1 μM; NAAG 3 μM, n = 1
Description: Experiments are performed after 21 days in cultures.
At the end of exposure, the cells are washed once with HEPES buffered saline solution and then replaced with serum free modified Earle's basal medium. The cultures are then returned to the CO2 incubator for 24 hour recovery.
This control measurement is subtracted from each experimental point.

[3] = system: injury to the cortex in rats following middle cerebral artery occlusion; conditions: n = 10
Source text: A colony of SHRSP rats is bred at Johns Hopkins School of Medicine from three pairs of male and female rats obtained from the National Institutes of Health (Laboratory, Sciences Section, Veterinary Resources Program, National Center for Research Resources, Bethesda, Md.). All rats are kept in a virus-free environment and maintained on regular diet (NIH 31, Zeigler Bros, Inc.) with water ad libitum. All groups of rats are allowed to eat and drink water until the morning of the experiment. […]
Arterial pH and PaCO2, and partial pressure of oxygen (PaO2) are measured with a self-calibrating Radiometer electrode system (ABL 3; Copenhagen, Denmark). Hemoglobin and arterial oxygen content are measured with a hemoximeter (Radiometer, Model OSM3; Copenhagen, Denmark). Blood glucose is measured with a glucose analyzer (model 2300A, Yellow Springs Instruments, Yellow Springs, Ohio).
Each group is exposed to 2 hours of right MCA occlusion and 22 hours of reperfusion. All variables but the rectal temperature are measured at baseline, at 15 minutes and 45 minutes of right MCA occlusion. The rectal temperature is measured at baseline, at 0 and 15 min of MCA occlusion, and at 0 and 22 hours of reperfusion.

[4] = In Vivo Toxicity of NAALADase Inhibitors (survival of mice); conditions: mouse, injected, read-out: Survival Rate After 5 days
Source text: The mice were subsequently observed two times per day for 5 consecutive days.

[5] = biological target: T1, NAALADase (Rattus norvegicus, UniProt P70627); experiment: In Vitro Assay of NAALADase Activity ([3H]Glu liberated from [3H]NAAG, synaptosomal protein); assay type: biochemical; design: of synaptosomal protein; from tissue; host or cells: synaptosomal protein (brain tissue; rat by inference)
Description: Substrate and product were resolved by anion-exchange liquid chromatography. […] Quisqualate (100 μM) was included in parallel assay tubes to confirm the specificity of the measurements.

[6] = biological target: T1, NAALADase; conditions: substrate NAAG; cited from earlier work

T1 sequence (P70627 whole entry): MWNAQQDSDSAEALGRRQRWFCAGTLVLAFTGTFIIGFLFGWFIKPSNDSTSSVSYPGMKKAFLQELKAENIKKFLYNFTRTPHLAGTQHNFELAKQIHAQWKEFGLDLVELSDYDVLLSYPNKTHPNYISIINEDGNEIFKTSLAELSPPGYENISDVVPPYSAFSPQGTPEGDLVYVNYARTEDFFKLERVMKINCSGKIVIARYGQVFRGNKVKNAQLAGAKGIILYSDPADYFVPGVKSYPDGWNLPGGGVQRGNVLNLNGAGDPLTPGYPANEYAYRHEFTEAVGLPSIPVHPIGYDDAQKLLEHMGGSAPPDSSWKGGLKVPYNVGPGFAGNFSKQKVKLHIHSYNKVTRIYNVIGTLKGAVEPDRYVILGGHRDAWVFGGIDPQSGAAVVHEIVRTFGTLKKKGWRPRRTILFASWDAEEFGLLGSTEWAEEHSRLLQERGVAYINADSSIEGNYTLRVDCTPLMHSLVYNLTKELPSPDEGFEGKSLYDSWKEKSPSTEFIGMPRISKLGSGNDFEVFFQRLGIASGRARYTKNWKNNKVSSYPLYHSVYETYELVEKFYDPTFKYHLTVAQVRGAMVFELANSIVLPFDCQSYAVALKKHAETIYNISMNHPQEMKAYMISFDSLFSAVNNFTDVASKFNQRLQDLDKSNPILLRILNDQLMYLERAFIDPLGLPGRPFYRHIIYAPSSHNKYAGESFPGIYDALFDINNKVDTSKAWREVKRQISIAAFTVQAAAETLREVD

Structure (SMILES)	3H-Thymidine Incorporation ([1]; dose 10 pM) [dpm/well]	3H-Thymidine Incorporation ([1]; dose 100 pM) [dpm/well]	3H-Thymidine Incorporation ([1]; dose 1 nM) [dpm/well]	3H-Thymidine Incorporation ([1]; dose 10 nM) [dpm/well]	% Toxicity [2] [%]	Cortical Injury Volume ± S.E.M. ([3]; 10 mg/kg followed by 2 mg/kg/hr for 1 hour) [mm^3]	Cortical Injury Volume ± S.E.M. ([3]; 100 mg/kg followed by 20 mg/kg/hr for one hour) [mm^3]	survival at 120 h ([4]; 1 mg/kg) [%]	survival at 120 h ([4]; 5 mg/kg) [%]	survival at 120 h ([4]; 10 mg/kg) [%]	survival at 120 h ([4]; 30 mg/kg) [%]	survival at 120 h ([4]; 100 mg/kg) [%]	survival at 120 h ([4]; 300 mg/kg) [%]	survival at 120 h ([4]; 500 mg/kg) [%]	NAALADase inhibiting activity (in words) [5]	Km [6] [µM]
O=C(O)CCC(CP(=O)(O)O)C(=O)O (centres unmarked) [2-(phosphonomethyl)pentanedioic acid]	3078 ± 1006	2062 ± 595	1001 ± 52	664 ± 366	-4.71	135.00 ± 32.18	65.23 ± 32.18	100	100	100	100	100	100	66.7	high NAALADase inhibiting activity	–
O=C(O)CCC(CP(=O)(O)CCC(=O)O)C(=O)O (centres unmarked) [2-[[2-carboxyethyl)hydroxyphosphinol]methyl]pentanedioic acid]	–	–	–	–	–	–	–	–	–	–	–	–	–	–	lower NAALADase inhibiting activity than 2-(phosphonomethyl)pentanedioic acid	–
CC(=O)N[C@@H](CC(=O)O)C(=O)N[C@@H](CCC(=O)O)C(=O)O [NAAG, N-acetyl-aspartyl-glutamate] (Ac-Asp-Glu-OH)	–	–	–	–	–	–	–	–	–	–	–	–	–	–	–	0.54
